# Assays:
# [1] = pH 6; cited from earlier work
# HBMEC = experiment: In vitro flow chamber: T cell-rolling on HBMEC, long-term conditions; format: cell-based, human
# Protocol: (§1) Human brain microvascular endothelial cells (HBMEC) (#1000, Sciencell Research Laboratories) or human umbilical vein endothelial cells (HUVEC) (#C-12200, Promocell) were used as endothelial cell-model. Cryopreserved HBMEC at passage 1 (>5×10^5 cells/ml) were first cultivated in fibronectin-coated Nunclon-treated 75 cm^2 cell culture flasks (#156499, Nunc) at 37° C. and 5% CO2 in a Heraeus Cytoperm 2 (Thermo Scientific) according to the manufacturer's instructions. Sub-cultivation of HBMEC was done with the Detach Kit (#C-41200, Promocell) consisting of HEPES-buffered balanced salt solution (#C-40000, Promocell), trypsin-EDTA solution (0.04%/0.03%) (#C-41000, Promocell) and trypsin neutralization solution (TNS, #C-41100, Promocell). Briefly, the medium was aspirated from the HBMEC-layer and cells were washed with 2 ml of HEPES-buffered balanced salt solution. Addition of 2 ml of trypsin-EDTA solution for 1-5 min at room temperature led to detachment of HBMEC from the flask bottom. Inactivation of trypsin-EDTA solution was performed by addition of 2 ml of trypsin neutralization solution to the cell suspension. Cells were centrifuged at 300 g for 4 min in a Heraeus Megafuge 40 (Thermo Scientific) and seeded at a cell density of 5×10^5 cells per gelatin-coated 75 cm^2 cell culture flask (#L7230, Biochrom). HBMEC for rolling and adhesion experiments were cultivated in RPMI 1640 medium (#FG1215, Biochrom) supplemented with Nu-Serum IV (10%) (#355505, BD Biosciences), dialyzed FBS (10%) (#SZ0115, Biochrom), MEM-vitamins (1%) (#K0373, Biochrom), L-glutamine (1%) (#K0283, Biochrom), sodium-pyruvate (1%) (#L0473, Biochrom), heparin (10 U/ml) (#L6510, Biochrom), and […] cell growth factor ECGS (30 μg/ml) (#02-102, Millipore). Cultivation of HUVEC was done in endothelial cell growth medium (#C-22010, Promocell) supplemented with dialyzed FBS (10%) (#SZ0115, Biochrom) using gelatin-coated 75 cm^2 cell culture flasks. Sub-cultivation of HUVEC was performed with the Detach Kit ([…], Promocell) and cells were seeded at a cell density of 4.0-7.5×10^5 cells per 75 cm^2 cell culture flask.
# (§2) Isolation of human PBMC from blood was performed by modified density gradient centrifugation as described elsewhere. Briefly, 15-20 ml of freshly drawn heparinized blood was transferred in Biocoll (#L6115, Biochrom)-containing Leukosep tubes (#227290, Greiner bio-one) and centrifuged in a Hettich Rotanta 460 RS Type 5606 (Hettich Laborapparate) at 1066 g for 15 min. After removal of the plasma fraction the PBMC containing phase was transferred in a new tube and washed twice with FACS-buffer (D-PBS #L1820, 5% FBS #SO115, Biochrom). Erythrocyte lysis was performed with lysis buffer (8.29 g/l NH4Cl, 1.00 g/l KHCO3, 0.037 g/l EDTA) for 5 min at room temperature. For subsequent purification of untouched T cells the human Pan T cell-isolation Kit II (#130-091-156, Miltenyi Biotec) was used according to the manufacturer's instructions.
# The ibidi Pump System (#10902, ibidi) was used for cultivation of endothelial cells under flow conditions as well as for performing adhesion and rolling assays of human T cells on endothelial cells. The system consists of the ibidi Pump (#10905, ibidi) and the ibidi Fluidic Unit (#10903, ibidi) which work together to generate a unidirectional flow of medium in an attached slide with a defined channel height. The system is controlled by the ibidi Pump Control software (#10908, notebook+software, ibidi). For cultivation of HBMEC or HUVEC under flow conditions, HBMEC or HUVEC were seeded at a cell density of 2.5×10^6 cells/ml into μ-slide I^0.4 Luer Collagen IV (#80172, ibidi) or μ-slide I^0.4 Luer ibiTreat (#80176, ibidi), respectively according to the manufacturer's instructions and cultivated with a perfusion set “yellow/green” (#10964, ibidi) for 48 h under wall shear stress of 5 or 10 dyn/cm^2, respectively. […]
# patients = experiment: Phase 1 clinical study: Blinatumomab with PPS co-medication; format: in vivo, human
# Protocol: In a phase 1 clinical study three patients were treated with Blinatumomab at an initial dose of 5 μg/m^2/day for 1 week followed by a dose escalation to 60 μg/m^2/day for additional 3 to 7 weeks.
# [2] = cited from earlier work
# stroke patients = conditions: iv, for several days; equivalent to 700 mg per os; cited from earlier work
# HUVEC = experiment: In vitro flow chamber: T cell-rolling and adhesion on HUVEC, long-term conditions; format: cell-based, human; conditions: non-stimulated HUVEC, 40 min
# Protocol: as §1
# as §2, with “For subsequent purification of untouched T cells the human Pan T cell-isolation Kit II (#130-091-156, Miltenyi Biotec) was used according to the manufacturer's instructions.” left out
molecule,measurement,setting,value
"β1→4-D-Xylan-2,3-bis(hydrogen sulfate) [PPS, reference compound]",solubility in water,[1],50%
same,mean T cell-rolling velocity±SD,"HBMEC; histamine-stimulated HBMEC, +AMG 103 10 ng/ml, +PPS 200 μg/ml, 45 min",483±157 μm/sec
same,mean T cell-rolling velocity±SD,"HBMEC; histamine-stimulated HBMEC, −AMG 103, +PPS 200 μg/ml, 45 min",442±156 μm/sec
same,mean T cell-rolling velocity±SD,"HBMEC; non-stimulated HBMEC, +AMG 103 10 ng/ml, +PPS 200 μg/ml, 40 min",465±116 μm/sec
same,mean T cell-rolling velocity±SD,"HBMEC; non-stimulated HBMEC, −AMG 103, +PPS 200 μg/ml, 40 min",514±159 μm/sec
same,"T cell-counts in peripheral blood vs baseline, 45 minutes after start of infusion or stepwise dose increase",patients; all three patients with PPS co-medication,no decline of T cell-counts
same,T cell-redistribution kinetics,"patients; all three patients with intravenous PPS, absence of CD19-positive target cells",delayed T cell-redistribution kinetics
same,earliest detection of decreased T cell-counts in peripheral blood after start of infusion or stepwise dose increase of Blinatumomab,patients; intervention with intravenous PPS,≥ 2 h
same,discontinuation of Blinatumomab treatment due to neurological adverse effects,"patients; three patients with intravenous PPS at start of infusion and dose step, high risk (low B:T cell-ratios)",none of these three patients had to discontinue treatment
natalizumab: antibody approved for the treatment of multiple sclerosis; binds to VLA-4 on T cells [reference compound],mean T cell-rolling velocity±SD,"HBMEC; non-stimulated HBMEC, +AMG 103 10 ng/ml, T cells pre-incubated with 1 μg/ml natalizumab, 40 min",444±110 μm/sec
same,mean T cell-rolling velocity±SD,"HBMEC; non-stimulated HBMEC, −AMG 103, +natalizumab 1 μg/ml, 40 min",445±81 μm/sec
"CN(C)c1ccc(O)c2c1C[C@H]1C[C@H]3[C@H](N(C)C)C(O)=C(C(N)=O)C(=O)[C@@]3(O)C(O)=C1C2=O [minocycline, Minocycline]",bioavailability,[2]; after oral administration,~100%
same,in vivo half-life,[2]; in vivo,approximately 24 hours
same,daily doses found to be safe and well-tolerated,stroke patients,up to 10 mg/kg
same,mean T cell-rolling velocity±SD,"HUVEC; +AMG 103 10 ng/ml, T cells pre-incubated with 50 μg/ml minocycline",217±92 μm/sec
same,mean T cell-rolling velocity±SD,"HUVEC; −AMG 103, +minocycline 50 μg/ml",233±29 μm/sec

# Reference: US9688760B2, “Anti-leukocyte adhesion for the mitigation of potential adverse events caused by CD3-specific binding domains” (AMGEN RESEARCH (MUNICH) GMBH, priority 2013, dated 2017)
